The source made the active and inactive calls.
Key:
[1] = test system: Mus musculus; assay: Anti-fibrotic effect in CCl4-induced hepatic fibrosis C57BL/6 mouse model assessed as reduction in hepatic fibrosis lesions at 500 ug/kg, po five times a week for 2 weeks by Hematoxylin-Eosin (H&E) staining based assay; format: functional, organism-based; details: dose 500.0 µg/kg
[2] = test system: Mus musculus; assay: Anti-fibrotic effect in bile duct ligation (BDL) surgery-induced hepatic fibrosis C57BL/6 mouse model assessed as reduction the lesions at 500 ug/kg, po five times a week for 2 weeks by Hematoxylin-Eosin (H&E) staining based assay; format: functional, organism-based; details: dose 500.0 µg/kg
[3] = test system: Mus musculus; assay: Anti-fibrotic effect in CCl4-induced hepatic fibrosis C57BL/6 mouse model assessed as decrease in inflammatory cell infiltration at 500 ug/kg, po five times a week for 2 weeks by Hematoxylin-Eosin (H&E) staining based assay; format: functional, organism-based; details: dose 500.0 µg/kg
[4] = test system: Mus musculus; assay: Anti-fibrotic effect in CCl4-induced hepatic fibrosis C57BL/6 mouse model assessed as reduction in hepatic fibrosis lesions at 500 ug/kg, po five times a week for 2 weeks by Masson's Trichrome staining based assay; format: functional, organism-based; details: dose 500.0 µg/kg
[5] = test system: Mus musculus; assay: Anti-fibrotic effect in CCl4-induced hepatic fibrosis C57BL/6 mouse model assessed as inhibition of Timp-1 expression in liver at 500 ug/kg, po five times a week for 2 weeks by RT-qPCR analysis; format: functional, organism-based; details: dose 500.0 µg/kg
[6] = test system: Mus musculus; assay: Anti-fibrotic effect in CCl4-induced hepatic fibrosis C57BL/6 mouse model assessed as inhibition of collagen deposition at 500 ug/kg, po five times a week for 2 weeks by Masson's Trichrome […] staining based assay; format: functional, organism-based; details: dose 500.0 µg/kg
[7] = target: T1, Vitamin D3 receptor (Homo sapiens) (UniProt P11473); assay: Agonist activity at Vitamin D receptor in HEK293 cells assessed as receptor transactivation incubated for 48 hrs by dual-luciferase reporter assay; format: cell-based; details: filed as agonist, dose 0.01-1 µM
T1 sequence (whole entry): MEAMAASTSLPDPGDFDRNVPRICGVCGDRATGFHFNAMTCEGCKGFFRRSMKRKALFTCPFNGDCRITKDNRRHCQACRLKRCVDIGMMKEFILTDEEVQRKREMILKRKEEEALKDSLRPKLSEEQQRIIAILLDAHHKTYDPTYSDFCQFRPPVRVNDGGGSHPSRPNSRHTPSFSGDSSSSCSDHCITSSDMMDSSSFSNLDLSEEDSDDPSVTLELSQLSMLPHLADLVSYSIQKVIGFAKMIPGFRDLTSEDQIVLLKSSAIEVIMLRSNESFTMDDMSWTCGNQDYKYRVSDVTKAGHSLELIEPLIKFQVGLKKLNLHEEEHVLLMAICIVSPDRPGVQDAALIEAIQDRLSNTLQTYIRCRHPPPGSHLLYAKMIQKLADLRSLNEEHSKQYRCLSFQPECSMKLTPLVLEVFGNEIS

[8] = test system: Mus musculus; assay: Anti-fibrotic effect in CCl4-induced hepatic fibrosis C57BL/6 mouse model assessed as inhibition of proliferation of fibrous tissue at 500 ug/kg, po five times a week for 2 weeks by Hematoxylin-Eosin (H&E) staining based assay; format: functional, organism-based; details: dose 500.0 µg/kg
[9] = test system: Mus musculus; assay: Anti-fibrotic effect in CCl4-induced hepatic fibrosis C57BL/6 mouse model assessed as decrease in inflammatory cell infiltration at 500 ug/kg, po five times a week for 2 weeks by Masson's Trichrome staining based assay; format: functional, organism-based; details: dose 500.0 µg/kg

Measured: Activity

OCc1ccc(/C=C/c2ccc(OCCCC(F)(F)F)cc2)cc1CO
active: [1] | [2] | [3] | [4] | [5] | [6] | [7] Dose-Dependent Effect | [8] | [9]

Reference: ChEMBL document CHEMBL5620415, “Design, synthesis and anti-hepatic fibrosis activity of novel diphenyl vitamin D receptor agonists” (Eur J Med Chem, 2023)
